Reference: paper PMC7117798 (Nature immunology, 2020)
“Also recorded” adds a separate entry of the source.

Experiments:
[1] = tested on: CD4^+ T cell hybridomas with C3g7 APCs; assay: Antigen presentation assay; format: cell-based, mouse; conditions: for response of InsB:11–25-reactive CD4^+ T cell hybridoma clone 58: Extended Data Fig. 3
[2] = tested on: I-A^g7; assay: Competitive binding assay; design: species or system mouse; conditions: n = 2 independent experiments
[3] = tested on: CD4^+ T cells from islets and pLN; format: cell-based; conditions: 8–10-week old female NOD mice; challenge with Ins1C:51–61 or Ins1C:51–61E and recall; compared with native Ins1C:51–61 or Ins1C:33–61; Fig. 3g
[4] = C3g7 APCs pulsed with epitope, Fig. 2c

EALYLVCGE [InsB:13–21]
response of InsB:11–25-reactive CD4^+ T cell hybridoma clone 58 [1, 4]: did not recognize; also recorded: unreactive

VEALYLVCG [InsB:12–20]
response of InsB:11–25-reactive CD4^+ T cell hybridoma clone 21 [1, 4]: cross-reacted
response of InsB:11–25-reactive CD4^+ T cell hybridoma clone 58 [1, 4]: did not recognize; also recorded: unreactive

CCN(CC)CCCC(C)Nc1ccnc2cc(Cl)ccc12 (centres unmarked) [chloroquine, reference compound]
effect on presentation of Ins1C:33–61 to a cognate CD4^+ T cell hybridoma ([1]; C3g7 APCs treated with 100 μM chloroquine at 37°C for 2 h in the presence of antigen, Extended Data Fig. 1d): did not affect the presentation

TLALEVARE [Ins1C:53–61E]
relative binding strength to I-A^g7 (in words) ([2]; competitive binding assay on C3g7 cells): bound poorly

LYLVCGERG [InsB:15–23]
response of InsB:11–25-reactive CD4^+ T cell hybridoma clone 58 [1, 4]: responded

LQTLALEVARE [Ins1C:51–61E]
fold higher binding affinity to I-A^g7 than Ins1C:51–61 ([2]; competitive binding assay, Fig. 3e): ~ 3 fold
IL-2 and IFN-γ production by islet/pLN CD4^+ T cells [3]: substantially stronger responses
